Converted amounts (≈) assume the structure as drawn. “And” between values parts separate entries of the source, which are not always exact repeats. Equal entries are not always repeated. Where two headings read alike, the source gives them in different places.
Assays:
[1] = tested on: BT474 cells (duet carcinoma); experiment: MTT antiproliferative/cytotoxic assay, BT474; assay type: cell-based, human; conditions: for IC50: Homo sapiens, BT-474, BT474, 72 h exposure, MTT, read-out: IC50, in vitro antiproliferative/cytotoxic activity
Description: (§1) The five selected cancer cell lines used in this research were derived from human duet carcinoma (BT474, ATCC No. HTB 20), undifferentiated lung (Chaco I, National Cancer Institute), liver hepatoblastoma (Hep-G2, ATCC No. HB8065), gastric carcinoma (KATO-III, ATCC No. HTB 103) and human colon adenocarcinoma (SW620, ATCC No. CCL 227) cancers. In addition, the non-transformed human foreskin fibroblast cell line (Hs27, ATCC No. CRL 1634) was used as a comparative control. All cell lines were obtained from the Institute of Biotechnology and Genetic Engineering, Chulalongkorn University. The five cancer cell lines were cultured in RPMI 1640 medium containing 5% (v/v) fetal calf serum (FCS), while the Hs27 cell line was cultured in Basal Iscove medium containing 5% (v/v) FCS, at 37°C with 5% (v/v) CO2 [28].
(§2) The MTT assay was performed as reported by Santos et al. and Hernandez et al.. […] The supernatant was then removed, the cells permeabilized and the formazan crystals dissolved by aspiration in 150 μl of DMSO and 25 μl of 0.1 M glycine prior to measuring the absorbance at 540 nm by a microplate reader. […] By assuming an equal mitochondrial metabolic activity per living cell, the absorbance is then related to the relative number of viable cells and so is reduced, relative to the control, by any antiproliferation and/or cytotoxic activity of the test compound.
The absorbance at 540 nm of the test compound treated cancer cells and the solvent only control was used to calculate the relative number of viable cells, setting that for the control as 100%. The relative number of viable cells, as a % of the control, was then calculated as follows: […]
(§3) where (Abs of sample) and (Abs of control) are defined as the absorbance at 540 nm of the treated cells and the control cells, respectively.
The IC50 values were graphically obtained by plotting the absorbance obtained against the corresponding different concentrations of the test compound used, and are reported as the mean ± 1 standard error (SE). Data were statistically analyzed using the Kruskal-Wallis One Way Analysis of Variance. […]

[2] = tested on: human colorectal cancer cell line (CRC); design: method as in PMID 15996024; conditions: 72 h treatment, cited from earlier work
[3] = tested on: five human cancer cell lines (BT474, Chaco, Hep-G2, KATO-III, SW620); experiment: MTT assay, summary over the five cancer cell lines; assay type: cell-based; conditions: 72 h exposure, read-out: IC50 values, range across the five cancer cell lines
Description: as §1, with “The five cancer cell lines were cultured in RPMI 1640 medium containing 5% (v/v) fetal calf serum (FCS), while the Hs27 cell line was cultured in Basal Iscove medium containing 5% (v/v) FCS, at 37°C with 5% (v/v) CO2 [28].” left out
as §2
(§4) The absorbance at 540 nm of the test compound treated cancer cells and the solvent only control was used to calculate the relative number of viable cells, setting that for the control as 100%. […]

[4] = tested on: Chaco cells (undifferentiated lung cancer); experiment: MTT antiproliferative/cytotoxic assay, Chaco; assay type: cell-based; conditions: Homo sapiens, 72 h exposure, read-out: IC50, in vitro antiproliferative/cytotoxic activity
Description: as §1, with “The five cancer cell lines were cultured in RPMI 1640 medium containing 5% (v/v) fetal calf serum (FCS), while the Hs27 cell line was cultured in Basal Iscove medium containing 5% (v/v) FCS, at 37°C with 5% (v/v) CO2 [28].” left out
as §2, §4

Hs27 cells [5] = experiment: DNA fragmentation (agarose-TBE gel), Hs27; assay type: cell-based, human; conditions: Hs27, 72 h
Experimental: (§5) The morphology of the SW620 or Hs27 cells treated with each test compound was compared to those treated with only the DMSO solvent as the control. Cells were released by standard trypsin and aspiration, centrifugally washed at 2,000 × g at 15-25°C for 5 min and finally the cell pellet was resuspended in 200 μl of PBS. To this 20 μl of proteinase K (> 600 mAU/ml) was added and total DNA was extracted using a QIAMP mini kit (Qiagen, cat. no. 51304), as per the manufacturer's instructions. […] After electrophoresis, the gel was stained with 10 μg/ml of ethidium bromide (EtBr) for 10 min, destained in distilled water for 20 min and the DNA visualized by ultraviolet transillumination.

[6] = tested on: Hep-G2 cells (liver hepatoblastoma); experiment: MTT antiproliferative/cytotoxic assay, Hep-G2; assay type: cell-based; conditions: Homo sapiens, HepG2, Hep-G2, 72 h exposure, read-out: IC50, in vitro antiproliferative/cytotoxic activity
Description: as §1, with “The five cancer cell lines were cultured in RPMI 1640 medium containing 5% (v/v) fetal calf serum (FCS), while the Hs27 cell line was cultured in Basal Iscove medium containing 5% (v/v) FCS, at 37°C with 5% (v/v) CO2 [28].” left out
as §2, §4

[7] = tested on: five cancer cell lines and the control Hs27 cell line; experiment: MTT assay, summary over the five cancer cell lines and Hs27; assay type: cell-based; conditions: Homo sapiens, 72 h exposure, read-out: IC50 values, range across the five cancer cell lines and the control Hs27 cell line
Description: as §1, with “The five cancer cell lines were cultured in RPMI 1640 medium containing 5% (v/v) fetal calf serum (FCS), while the Hs27 cell line was cultured in Basal Iscove medium containing 5% (v/v) FCS, at 37°C with 5% (v/v) CO2 [28].” left out
as §2, §4

SW620 cells [8] = experiment: Cell morphology in culture, SW620; assay type: cell-based, human; conditions: at IC50 ([…] / 3.0 μg/ml)
Experimental: as §5

[9] = MTT antiproliferative/cytotoxic assay, non-transformed Hs27; assay type: cell-based; conditions: human, Hs27 non-transformed foreskin fibroblast cells, read-out: IC50, in vitro antiproliferative/cytotoxic activity
Description: as §1, with “The five cancer cell lines were cultured in RPMI 1640 medium containing 5% (v/v) fetal calf serum (FCS), while the Hs27 cell line was cultured in Basal Iscove medium containing 5% (v/v) FCS, at 37°C with 5% (v/v) CO2 [28].” left out
as §2, §4

Hs27 cells [10] = experiment: Cell morphology in culture, Hs27; assay type: cell-based, human; conditions: Hs27, up to 96 h, same doses as for SW620
Experimental: as §5

[11] = tested on: SW620 cells (colon adenocarcinoma); experiment: MTT antiproliferative/cytotoxic assay, SW620; assay type: cell-based, human; conditions: for IC50 / IC50, in vitro antiproliferative/cytotoxic activity: SW620, 72 h exposure, MTT; for IC50: read-out: IC50, in vitro antiproliferative/cytotoxic activity
Description: as §1
The MTT assay was performed as reported by Santos et al. and Hernandez et al.. For each of the five cancer cell lines, 5 × 10^3 cells in 200 μl of RPMI 1640 medium containing 5% (v/v) FCS were transferred per well of a 96 well tissue culture plate, and incubated at 37°C in 5% (v/v) CO2 for 24 h prior to the addition of 2 μl/well of the test extract in dimethylsulfoxide (DMSO) at various final concentrations. The addition of 2 μl/well of DMSO alone was used as the control. Cells were then incubated as above for 72 h before 10 μl of 5 mg/ml MTT was added and incubated for another 4 h. The supernatant was then removed, the cells permeabilized and the formazan crystals dissolved by aspiration in 150 μl of DMSO and 25 μl of 0.1 M glycine prior to measuring the absorbance at 540 nm by a microplate reader. Three replications of each trial were performed. By assuming an equal mitochondrial metabolic activity per living cell, the absorbance is then related to the relative number of viable cells and so is reduced, relative to the control, by any antiproliferation and/or cytotoxic activity of the test compound.
The absorbance at 540 nm of the test compound treated cancer cells and the solvent only control was used to calculate the relative number of viable cells, setting that for the control as 100%. The relative number of viable cells, as a % of the control, was then calculated as follows:
Therelative(% )numberofviablecells = (Absofsample)×100/(Absofcontrol)
as §3
The IC50 values were graphically obtained by plotting the absorbance obtained against the corresponding different concentrations of the test compound used, and are reported as the mean ± 1 standard error (SE). Data were statistically analyzed using the Kruskal-Wallis One Way Analysis of Variance. Significance was accepted at the P < 0.05 level.

SW620 cells [12] = experiment: DNA fragmentation (agarose-TBE gel), SW620; assay type: cell-based, human; conditions: SW620, 72 h at IC50, agarose-TBE gel
Experimental: as §5

[13] = tested on: KATO-III cells (gastric carcinoma); experiment: MTT antiproliferative/cytotoxic assay, KATO-III; assay type: cell-based; conditions: Homo sapiens, 72 h exposure, read-out: IC50, in vitro antiproliferative/cytotoxic activity
Description: as §1, with “The five cancer cell lines were cultured in RPMI 1640 medium containing 5% (v/v) fetal calf serum (FCS), while the Hs27 cell line was cultured in Basal Iscove medium containing 5% (v/v) FCS, at 37°C with 5% (v/v) CO2 [28].” left out
as §2, §4

B16-F10 melanoma cells = tested on: B16-F10 melanoma cells; design: method as in PMID 20623613; conditions: cited from earlier work
HeLa tumor cells = tested on: HeLa tumor cells; design: method as in PMID 19497755; conditions: cited from earlier work
[14] = read-out: IC50, antiproliferative activity
[15] = mean ± 1 SE, ND in Table 4 = no IC50 obtained, no significant activity in tested concentration range

O=C(/C=C/c1ccc(O)c(O)c1)OCCc1ccccc1 [CAPE, caffeic acid phenethyl ester]
fold higher IC50 of CAPE than compound 2 (cardol) on BT474 ([1]; in terms of molarity, CAPE on MDA-231/MCF-7): ~1.5 fold | IC50 [2, 14]: 22.7 µM | IC50, antiproliferative activity [2]: 6.47 µg/mL (≈ 22.8 µM)

CCCCCCCCCCCCCCCc1cc(O)cc(O)c1 [Compound 2]
IC50 [3]: 3.13 µg/mL to 6 µg/mL and 6.82 µM to 13.1 µM | IC50 [4, 15]: 5.78 ± 0.07 µg/mL | IC50 [4]: 12.6 ± 0.15 µM | evidence of fragmentation of the DNA (Hs27 cells [5]): neither as an apoptotic ladder nor a general degradation smear | IC50 [6, 15]: 5.97 ± 0.15 µg/mL | IC50 [6]: 1.3 ± 0.33 µM | IC50 [7]: 3.13 µg/mL to 5.97 µg/mL and 6.82 µM to 13 µM | cell morphology (SW620 cells [8]; SW620, 24 h): No significant change in the cell morphology | cell morphology (SW620 cells [8]; SW620, 48 h): vacuolation could be seen inside the cells | cell morphology (SW620 cells [8]; SW620, 72 h): apparent DNA condensation within the nucleus was visible | cell morphology (SW620 cells [8]; SW620, 96 h): significantly higher levels of cells with DNA condensation within their nucleus | IC50 at 72 h ([9]; Hs27, 72 h exposure): 1.3 ± 0.33 µM | IC50 at 72 h ([9]; Hs27 non-transformed control, 72 h exposure, mean ± 1 SE): 5.97 ± 0.15 µg/mL | cell morphology (Hs27 cells [10]): no morphological changes were observed | IC50 [1, 15]: 4.41 ± 0.15 µg/mL | IC50 [1]: 9.61 ± 0.33 µM | IC50 ([11]; Homo sapiens, SW-620, 72 h, mean ± 1 SE, ND in Table 4 = no IC50 obtained, no significant activity in tested concentration range): 3 µg/mL | IC50 ([11]; Homo sapiens, SW-620, 72 h): 6.54 µM | IC50, in vitro antiproliferative/cytotoxic activity [11, 15]: < 3.125 µg/mL | IC50, in vitro antiproliferative/cytotoxic activity ([11]; mean ± 1 SE, ND in Table 4 = no IC50 obtained, no significant activity in tested concentration range, listed as compound 2): < 3.13 µg/mL | IC50 ([11]; listed as compound 2): < 6.8 µM | IC50 [11]: < 6.81 µM | fold lower IC50 on SW620 than IC50 of CAPE on CRC ([11]; in terms of molarity): over 3.3 fold | evidence of fragmentation of the DNA (SW620 cells [12]): neither as an apoptotic ladder nor a general degradation smear | IC50 [13, 15]: 4.03 ± 0.13 µg/mL | IC50 [13]: 8.78 ± 0.28 µM

CCCCCCCCCCCCCCCc1cc(O)cc(O)c1 [cardol (C15:0)]
IC50, cytotoxicity (B16-F10 melanoma cells): 8.352 µg/mL (≈ 26.1 µM) | complete lethality concentration (B16-F10 melanoma cells): 40 μM and 13.92 μg/ml | IC50 (B16-F10 melanoma cells; read-out: IC50, cytotoxicity): 24 µM

CC(C)=CC[C@H]1C[C@@]2(CC=C(C)C)C(=O)[C@](C(=O)c3ccccc3)(C(=O)C3=C2O[C@H](C(C)(C)O)C3)C1(C)C [hyperibone A]
IC50, antiproliferative activity (HeLa tumor cells): 0.091 µg/mL (≈ 0.175 µM) | IC50 (HeLa tumor cells; [14]): 0.176 µM
